Where two headings read alike, the source gives them in different places.
What was measured:
PC3 cells = test: PC3 growth inhibition (Cell-titer glo, 72 hours); assay type: cell-based; details: Homo sapiens, PC-3, PC3 cells, 72 hours, Cell-titer glo, read-out: Percent Inhibition (PC3 growth inhibition); for inhibition at 1 µM: compound concentration 1 μM; for inhibition at 1.667 µM: compound concentration 1.667 μM
Protocol: The ability of a compound of the invention to inhibit the growth of cells can be measured using a variety of methods known in the art. For example, the ability of a compound of the invention to inhibit the growth of PC3 cells can be measured. PC3 cells can be plated and incubated overnight under CO2. For each measurement, a compound of the invention (or vehicle e.g., DMSO) can be diluted with AIM serum free medium and added to the cell plate. The cell plate can then be incubated for 72 h under CO2. Cell-titer glo solution can be added and the plates can be incubated protected from light and the amount of luminescences can be measured. Concentration response curves can be generated by calculating the luminescence increase in test compound treated samples relative to DMSO-treated controls. Percentage remaining viability values at a single concentration can be measured. Growth inhibition (GI50) or cell viability (LD50) values can be determined from those curves.
Compounds of the invention were assayed to measure PC3 growth inhibition at a concentration of 1 μM or 1.667 μM (Table 3). To measure PC3 growth inhibition, PC3 cells that were maintained in PRMI1640 growth medium (Life Technologies; Cat. No. 11875) at 37° C. under 5% CO2 are trypsinized and diluted at a density of 8×10^4 cells/ml, 25 ul per well of cells and plated in 384-well black tissue culture plate. The cells are incubated overnight at 37° C. under 5% CO2. For each measurement, a test compounds or vehicle control (DMSO) are diluted with AIM serum free medium and added to the cell plate. Incubate for 72 hours at 37° C. under 5% CO2. 25 μl Cell-titer glo solution (Promega; Cat. No. G8462) is added and the cell plates are incubated for 10 minutes protected from light. The luminescence is measured. Concentration response curves are generated by calculating the luminescence increase in test compound-treated samples relative to DMSO-treated controls. Percentage remaining viability values at a single concentration, growth inhibition (GI50) or cell viability (LD50) values are determined from those curves. One skilled in the art will appreciate that these values are subject to experimental variation.

hNAMPT protein = hNAMPT protein (Homo sapiens (Human), UniProt P43490); test: NAMPT enzyme assay (TR-FRET/HTRF, BodiPY ligand, anti 6His-Tb); assay type: binding; details: for IC50: read-out: IC50; for inhibition at 1 µM: read-out: Percent Inhibition
Excerpt: As discussed above, the invention provides compounds that are useful as inhibitors of the enzyme NAMPT. The NAMPT inhibition of a compound of the invention can be measured using a variety of methods known in the art. For example, the ability of a compound of the invention to inhibit NAMPT enzyme activity can be measured using a homogeneous time resolved fluorescence (HTRF) assay using hNAMPT protein and anti 6His-Tb in buffer treated with a compound of the invention (or control e.g., DMSO) and BodiPY ligand. The TR-FRET signal can be measured using a high throughput microplate reader (e.g., Pherastar). Excitation can be carried out at 320 nm. The percent inhibition value at a single concentration of compound of the invention can be calculated relative to a control treated sample. A concentration response curve can be generated for each compound of the invention and the curve fitted to generate an IC50 value. […] Cat. No. […] To this solution is added test compounds or vehicle control (DMSO) and BodiPY ligand (structure below). The plate is shaken for 1-2 min, sealed and incubated for 1 hour at rt in the dark. The TR-FRET signal is measured using BMG Pherastar (Lanthascreen protocol on BMG Pherastar). Excitation was carried out at 320 nm, and the ratio of emission of BodiPY (520 nm) to terbium (486 nm) was determined. Concentration response curves are generated by calculating the excitation increase in test compound-treated samples relative to DMSO-treated controls. For the assay method described above, test compound percent inhibition values at a single concentration are calculated relative to control (DMSO) treated samples. Compound concentration response curves are fitted to generate IC50 values from those curves. One skilled in the art will appreciate that these values generated either as percentage inhibition at a single concentration or IC50 values are subject to experimental variation.

[1] = NAMPT inhibition at compound concentration 1 μM
[2] = NAMPT inhibition, IC50 range class

Chain of hNAMPT protein (P43490 whole entry): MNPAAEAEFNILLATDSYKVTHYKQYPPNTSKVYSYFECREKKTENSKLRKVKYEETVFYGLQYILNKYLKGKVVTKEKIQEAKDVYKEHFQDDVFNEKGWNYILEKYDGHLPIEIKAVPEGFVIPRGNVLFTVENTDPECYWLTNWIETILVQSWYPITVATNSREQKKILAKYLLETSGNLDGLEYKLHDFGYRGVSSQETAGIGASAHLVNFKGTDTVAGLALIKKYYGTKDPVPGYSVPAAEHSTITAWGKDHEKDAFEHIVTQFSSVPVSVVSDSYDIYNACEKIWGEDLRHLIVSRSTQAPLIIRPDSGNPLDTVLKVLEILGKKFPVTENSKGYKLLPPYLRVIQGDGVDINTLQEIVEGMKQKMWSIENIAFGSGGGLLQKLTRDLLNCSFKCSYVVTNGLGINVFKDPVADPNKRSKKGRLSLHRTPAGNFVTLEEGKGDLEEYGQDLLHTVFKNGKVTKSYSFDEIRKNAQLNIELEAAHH

| Structure (SMILES) | inhibition at 1 µM (PC3 cells) [%] | IC50 (hNAMPT protein; NAMPT IC50 range class) [nM] | inhibition at 1 µM (hNAMPT protein; compound concentration 1 μM) [%] | inhibition at 1.667 µM (PC3 cells) [%] | inhibition at 1 µM (hNAMPT protein; [1]) [%] | IC50 (hNAMPT protein; [2]) [nM] | inhibition at 1 µM (hNAMPT protein) [%] |
| --- | --- | --- | --- | --- | --- | --- | --- |
| O=C(NCCCn1ccnc1)c1ccc2nc(-c3ccc(F)cc3)c(-c3ccc(F)cc3)nc2c1 [Compound I-19, 2,3-bis(4-fluorophenyl)-N-[3-(1H-imidazol-1-yl)propyl]quinoxaline-6-carboxamide] | -1 | 100 to 500 | 82 | – | – | – | – |
| O=C(NCCCc1ncc[nH]1)c1ccc2nc(-c3ccc(F)cc3)c(-c3ccc4c(c3)OCCO4)nc2c1 [Compound I-320, 3-(2,3-dihydro-1,4-benzodioxin-6-yl)-2-(4-fluorophenyl)-N-[3-(1H-imidazol-2-yl)propyl]quinoxaline-6-carboxamide] | – | 500 to 1000 | 63 | 3 | – | – | – |
| O=C(NCCCc1ncc[nH]1)c1ccc2nc(OC3CCNCC3)c(-c3ccc(F)cc3)nc2c1 [Compound I-514, 3-(4-fluorophenyl)-N-[3-(1H-imidazol-2-yl)propyl]-2-(piperidin-4-yloxy)quinoxaline-6-carboxamide] | – | – | – | 3 | 97 | < 100 | – |
| O=C(NCCCc1c[nH]cn1)c1ccc2nc(N3CCCCC3)c(-c3ccc(F)cc3)nc2c1 [Compound I-301, 3-(4-Fluorophenyl)-N-[3-(1H-imidazol-4-yl)propyl]-2-(piperidin-1-yl)quinoxaline-6-carboxamide] | – | < 100 | 99 | 2 | – | – | – |
| O=C(NCCCn1ccnc1)c1ccc2nc(-c3ccccc3)c(-c3ccc(Cl)cc3)nc2c1 [Compound I-79, 3-(4-chlorophenyl)-N-[3-(1H-imidazol-1-yl)propyl]-2-phenylquinoxaline-6-carboxamide] | -8 | < 100 | 93 | – | – | – | – |
| O=C(NCCCc1ncc[nH]1)c1ccc2nc(-c3ccc(F)cc3)c(-c3cccs3)nc2c1 [Compound I-340, 2-(4-Fluorophenyl)-N-[3-(1H-imidazol-2-yl)propyl]-3-(2-thienyl)quinoxaline-6-carboxamide] | – | < 100 | > 99 | 3 | – | – | – |
| O=C(NCCCn1ccnc1)c1ccc2nc(-c3ccccc3)c(N3CCC3)nc2c1 [Compound I-175, 3-(azetidin-1-yl)-N-[3-(1H-imidazol-1-yl)propyl]-2-phenylquinoxaline-6-carboxamide] | 95 | 2000 to 10000 | 20 | – | – | – | – |
| CO[C@H]1C[C@H](Oc2nc3ccc(C(=O)NCCCc4ncc[nH]4)cc3nc2-c2ccc(F)cc2)C1 [Compound I-338, 3-(4-fluorophenyl)-N-[3-(1H-imidazol-2-yl)propyl]-2-[(trans-3-methoxycyclobutyl)oxy]quinoxaline-6-carboxamide] | – | < 100 | > 99 | 1 | – | – | – |
| O=C(NCCCc1ncc[nH]1)c1ccc2nc(-n3ccnc3)c(-c3ccc(F)cc3)nc2c1 [Compound I-324, 3-(4-fluorophenyl)-2-(1H-imidazol-1-yl)-N-[3-(1H-imidazol-2-yl)propyl]quinoxaline-6-carboxamide] | – | 500 to 1000 | 57 | 3 | – | – | – |
| N#Cc1cc(-c2nc3cc(C(=O)NCCCc4ncc[nH]4)ccc3nc2-c2ccc(F)cc2)ccc1F [Compound I-388, 3-(3-cyano-4-fluorophenyl)-2-(4-fluorophenyl)-N-[3-(1H-imidazol-2-yl)propyl]quinoxaline-6-carboxamide] | – | 100 to 500 | 81 | 3 | – | – | – |
| C#Cc1ccc(-c2nc3cc(C(=O)NCCCc4ncc[nH]4)ccc3nc2-c2ccc(F)cc2)cc1 [Compound I-416, 3-(4-ethynylphenyl)-2-(4-fluorophenyl)-N-[3-(1H-imidazol-2-yl)propyl]quinoxaline-6-carboxamide] | – | – | – | 2 | 76 | 100 to 500 | – |
| O=C(NCCCc1ncc[nH]1)c1ccc2nc(-c3ccc(F)cc3)c(-c3ccc(F)s3)nc2c1 [Compound I-368, 2-(4-fluorophenyl)-3-(5-fluoro-2-thienyl)-N-[3-(1H-imidazol-2-yl)propyl]quinoxaline-6-carboxamide] | – | < 100 | > 99 | 1 | – | – | – |
| Cc1ccc(Cl)cc1-c1nc2cc(C(=O)NCCCc3ncc[nH]3)ccc2nc1-c1ccc(F)cc1 [Compound I-493, 3-(5-chloro-2-methylphenyl)-2-(4-fluorophenyl)-N-[3-(1H-imidazol-2-yl)propyl]quinoxaline-6-carboxamide] | – | – | – | 1 | 98 | < 100 | – |
| NC(=O)c1ccc(-c2nc3ccc(C(=O)NCCCn4ccnc4)cc3nc2-c2ccccc2)cc1 [Compound I-190, 2-(4-carbamoylphenyl)-N-[3-(1H-imidazol-1-yl)propyl]-3-phenylquinoxaline-6-carboxamide] | -6 | 100 to 500 | 74 | – | – | – | – |
| O=C(NCCCn1ccnc1)c1ccc2nc(Oc3ccccc3)c(-c3ccccc3)nc2c1 [Compound I-80, N-[3-(1H-Imidazol-1-yl)propyl]-2-phenoxy-3-phenylquinoxaline-6-carboxamide] | 1 | 500 to 1000 | – | – | – | – | 65 |
| CC(C)(C)OC(=O)NCc1ccccc1-c1nc2cc(C(=O)NCCCn3ccnc3)ccc2nc1-c1ccccc1 [Compound I-217, tert-butyl[2-(7-{[3-(1H-imidazol-1-yl)propyl]carbamoyl}-3-phenylquinoxalin-2-yl)benzyl]carbamate] | 95 | 2000 to 10000 | 26 | – | – | – | – |
| CC(=O)N1CCN(c2nc3cc(C(=O)NCCCn4ccnc4)ccc3nc2-c2ccccc2)CC1 [Compound I-168, 3-(4-Acetylpiperazin-1-yl)-N-[3-(1H-imidazol-1-yl)propyl]-2-phenylquinoxaline-6-carboxamide] | 1 | 100 to 500 | 84 | – | – | – | – |
| O=C(NCCCc1ncc[nH]1)c1ccc2nc(N3CCOCC3)c(-c3ccc(F)cc3)nc2c1 [Compound I-39, 3-(4-fluorophenyl)-N-[3-(1H-imidazol-2-yl)propyl]-2-(morpholin-4-yl)quinoxaline-6-carboxamide] | – | < 100 | 97 | 2 | – | – | – |
| N#Cc1ccc(Cl)c(-c2nc3cc(C(=O)NCCCc4ncc[nH]4)ccc3nc2-c2ccc(F)cc2)c1 [Compound I-393, 3-(2-chloro-5-cyanophenyl)-2-(4-fluorophenyl)-N-[3-(1H-imidazol-2-yl)propyl]quinoxaline-6-carboxamide] | – | < 100 | 98 | 2 | – | – | – |
| CS(=O)(=O)N1CCN(c2nc3cc(C(=O)NCCCn4ccnc4)ccc3nc2-c2ccccc2)CC1 [Compound I-129, N-[3-(1H-imidazol-1-yl)propyl]-3-[4-(methylsulfonyl)piperazin-1-yl]-2-phenylquinoxaline-6-carboxamide] | -6 | 100 to 500 | 70 | – | – | – | – |
| CC(C)Oc1nc2ccc(C(=O)NCCCc3ncc[nH]3)cc2nc1-c1cc(C#N)ccc1F [Compound I-414, 3-(5-cyano-2-fluorophenyl)-N-[3-(1H-imidazol-2-yl)propyl]-2-isopropoxyquinoxaline-6-carboxamide] | – | – | – | 1 | 95 | < 100 | – |
